According to US20260138970A1, “MODULATORS OF THE CALCIUM SIGNALING CASCADE” (FONDAZIONE TELETHON ETS, priority 2022, published 2026):

Columns and labels:
Type in all cases: cell-based
[1] = system: protease-activated receptors; assay: Fluo-4 Ca2+ assay, SLIGR-NH2 stimulus, HEKR1 cells; conditions: SLIGR-NH2 10 μM; compounds 10 μM; FIG. 5C top
Description: (§1) Experiments were performed using the microplate reader described for the HS-YFP assay. FRT and HEK293 cells were cultured until confluence in 96-well microplates (3603, Corning). Cells were washed 2 times with PBS (150 μl/wash) and then loaded for 1 h at 37° C. with 5 μM Fluo-4/AM (Thermo Fisher Scientific; catalog number: F23917) in PBS containing 10 mM glucose, 0.5 mM sulfinpyrazone, and 1% fetal bovine serum. After loading, cells were washed 2 times with PBS-glucose-sulfinpyrazone (150 μl/wash) and incubated for 20 min at 37° C. with 60 μl of PBS plus 10 mM glucose and 0.5 mM sulfinpyrazone containing compounds of interest at 10 μM final concentration or vehicle. Each well was assayed individually. Fluo-4 fluorescence (500 nm excitation, 535 nm emission) was detected every 200 ms for 16-40 s. Two seconds after the start of fluorescence recording, the reader automatically injected 165 μl of a modified PBS containing 136 mM KCl instead of NaCl. This solution also contained 10 mM glucose, 0.5 mM sulfinpyrazone, and UTP or SLIGR-NH2 (CAS #171436-38-7) at a final concentration that depended on the specific cell type. For UTP we used: 0.25 μM for FRT; 1 μM for HEKR2; 5 μM for HEK3XKO, HEKR1, and HEKR3. For SLIGR-NH2 we used: 10 μM for HEKR1; 4 μM for HEKR2. These concentrations were chosen to elicit ˜20% of maximal effect based on UTP and SLIGR-NH2 dose-response relationships. The lower agonist concentrations used for HEKR2 cells, compared to HEKR1 cells, are consistent with the higher affinity of ITPR2 for IP3 (16). The Fluo-4 fluorescence increase was quantified using a procedure compiled in Microsoft Excel after background subtraction and normalization for the initial value measured before UTP addition.

[2] = system: TMEM16A; assay: Short-circuit current recordings on FRT epithelia with stable expression of TMEM16A; conditions: compounds 10 μM; UTP 0.25 μM apical; vs vehicle; FIG. 1C
Description: (§2) Snapwell supports (3801, Corning) carrying FRT and differentiated HBEC epithelia were mounted in a vertical chamber resembling an Ussing system with internal fluid circulation (EM-CSYS-8, Physiologic Instruments, San Diego, CA, USA). For FRT epithelia, the apical and basolateral hemichambers were filled with solutions of different composition. The apical solution (5 ml) contained (in mM): 63 NaCl, 63 sodium gluconate, 0.38 KH2PO4, 2.13 K2HPO4, 2 CaCl2, 1 MgSO4, 20 Na-Hepes (pH 7.3), and 10 glucose. The basolateral solution (5 ml) instead contained (in mM): 126 KCl, 0.38 KH2PO4, 2.13 K2HPO4, 1 CaCl2, 1 MgSO4, 20 Na-Hepes (pH 7.3), and 10 glucose. Both solutions were continuously bubbled with air and the temperature of the solution was kept at 37° C. For HBECs, the same (bicarbonate-buffered) solution was used in both chambers. The composition of this solution was (in mM): 126 NaCl, 0.38 KH2PO4, 2.13 K2HPO4, 1 MgSO4, 1 CaCl2), 24 NaHCO3, and 10 glucose. Both sides were continuously bubbled with a gas mixture containing 5% CO2 and 95% air. The temperature of the solution was kept at 37° C. throughout the experiment.
(§3) Transepithelial voltage was short-circuited with a voltage-clamp (VCC MC8, Physiologic Instruments, San Diego, CA, USA) connected to the apical and basolateral chambers via Ag—AgCl electrodes and agar bridges (2% agar in 1 M KCl). The offset between voltage electrodes and the fluid resistance were cancelled before experiments. The resulting short-circuited current from each channel was recorded on a personal computer with the Acquire & Analize 2.3 software (Physiologic Instruments, San Diego, CA, USA).

[3] = target: T1, T267M ITPR1 (Homo sapiens, UniProt Q14643, T267M); assay: Fluo-4 Ca2+ assay, UTP, HEK293 cells with inducible T267M ITPR1; conditions: UTP 5 μM; compound 10 μM; tetracycline-induced; FIG. 6B-C
T1 construct: expressed in transfected cells
Description: (§4) HEK293 cells stably transfected with tetracycline-inducible expression of wild type or mutant (R269W or T267M) ITPR1, kindly provided by Prof. S. R. Wayne Chen (University of Calgary; ref. 14), were cultured in a mixture of Dulbecco's Modified Eagle Medium (DMEM, high glucose version) and Ham's F12 (1:1) and supplemented with 10% fetal bovine serum, 2 mM L-glutamine, 100 U/ml penicillin and 100 μg/ml streptomycin. Cells were selected with 0.5 mg/ml hygromycin B and induced with 1 μg/ml tetracycline.
as §1, with “The lower agonist concentrations used for HEKR2 cells, compared to HEKR1 cells, are consistent with the higher affinity of ITPR2 for IP3 (16).” left out

[4] = system: TMEM16A; assay: Short-circuit current recordings on human cultured bronchial epithelia, UTP-triggered Cl- secretion; conditions: UTP 0.25 μM; ARN7149 10 μM, ARN11391 20 μM, ARN4550 20 μM; amiloride, paxillin, inh-172 present; FIG. 5A
Description: Human bronchial epithelial cells (HBECs) were isolated and cultured as reported in a previous study (21; 40). Briefly, HBECs were cultured in flasks in a home-made serum-free medium (21). After four to five passages, cells were seeded at high density (500,000/cm^2) on Snapwell porous insert (cc3801, Corning Costar). After 24 h from seeding, the basolateral medium was replaced with differentiation medium PneumaCult ALI (Stemcell Technologies), whereas the apical medium was totally removed to obtain the air-liquid interface (ALI) condition. Epithelia were kept under this condition for at least 2-3 weeks to achieve mucociliary differentiation.
as §2, with “The temperature of the solution was kept at 37° C. throughout the experiment.” left out
as §3, with “The offset between voltage electrodes and the fluid resistance were cancelled before experiments.” left out

[5] = target: T2, R269W ITPR1 (Homo sapiens, UniProt Q14643, R269W); assay: Fluo-4 Ca2+ assay, UTP, HEK293 cells with inducible R269W ITPR1; conditions: UTP 5 μM; compound 10 μM; tetracycline-induced; FIG. 6B-C
T2 construct: expressed in transfected cells
Description: as §4
as §1, with “The lower agonist concentrations used for HEKR2 cells, compared to HEKR1 cells, are consistent with the higher affinity of ITPR2 for IP3 (16).” left out

[6] = system: PLC; assay: PLC assay in FRT cells expressing PH-PLC-GFP sensor; conditions: compounds 10 μM, cytosolic GFP increase, FIG. 3; for potentiation of UTP effect on PLC activity, lower UTP concentration: UTP 0.25 μM; for potentiation of UTP effect on PLC activity, higher UTP concentration: UTP 100 μM
Description: FRT cells with stable expression of PLC6-PH-GFP, generated in the laboratory of inventors, were cultured up to subconfluent condition in p-Plate96 microplates (Ibidi). Each well of a 96-well microplate was washed 3 times, leaving 125 μl of phosphate-buffered saline (PBS) containing compounds at 10 μM final concentration or vehicle. After 20 min of incubation at 37° C., microplate was moved on the stage of an inverted microscope equipped with GFP excitation/emission filters, 40×oil immersion objective (Olympus, Segrate, Italy), Lambda DG4 illumination system (Sutter Instrument Co., Novato, CA, USA), Prime cmos camera (Photometrics, Tucson, AZ, USA) and MetaMorph imaging acquisition software (Molecular Devices, Sunnyvale, CA, USA). Time-lapse experiments were carried out with 50 ms exposure time, 20 frame/s rate, and 2.4 min total duration. After 20 s and 90 s, UTP 0.25 μM and 100 μM (final concentrations) was respectively added. Analysis was performed with MetaMorph software, by quantifying GFP fluorescence cytoplasmic accumulation in manually selected single cell regions of interest (ROI). After background subtraction, fluorescence recordings were normalized for the initial value.

T2 sequence (Q14643 whole entry R269W): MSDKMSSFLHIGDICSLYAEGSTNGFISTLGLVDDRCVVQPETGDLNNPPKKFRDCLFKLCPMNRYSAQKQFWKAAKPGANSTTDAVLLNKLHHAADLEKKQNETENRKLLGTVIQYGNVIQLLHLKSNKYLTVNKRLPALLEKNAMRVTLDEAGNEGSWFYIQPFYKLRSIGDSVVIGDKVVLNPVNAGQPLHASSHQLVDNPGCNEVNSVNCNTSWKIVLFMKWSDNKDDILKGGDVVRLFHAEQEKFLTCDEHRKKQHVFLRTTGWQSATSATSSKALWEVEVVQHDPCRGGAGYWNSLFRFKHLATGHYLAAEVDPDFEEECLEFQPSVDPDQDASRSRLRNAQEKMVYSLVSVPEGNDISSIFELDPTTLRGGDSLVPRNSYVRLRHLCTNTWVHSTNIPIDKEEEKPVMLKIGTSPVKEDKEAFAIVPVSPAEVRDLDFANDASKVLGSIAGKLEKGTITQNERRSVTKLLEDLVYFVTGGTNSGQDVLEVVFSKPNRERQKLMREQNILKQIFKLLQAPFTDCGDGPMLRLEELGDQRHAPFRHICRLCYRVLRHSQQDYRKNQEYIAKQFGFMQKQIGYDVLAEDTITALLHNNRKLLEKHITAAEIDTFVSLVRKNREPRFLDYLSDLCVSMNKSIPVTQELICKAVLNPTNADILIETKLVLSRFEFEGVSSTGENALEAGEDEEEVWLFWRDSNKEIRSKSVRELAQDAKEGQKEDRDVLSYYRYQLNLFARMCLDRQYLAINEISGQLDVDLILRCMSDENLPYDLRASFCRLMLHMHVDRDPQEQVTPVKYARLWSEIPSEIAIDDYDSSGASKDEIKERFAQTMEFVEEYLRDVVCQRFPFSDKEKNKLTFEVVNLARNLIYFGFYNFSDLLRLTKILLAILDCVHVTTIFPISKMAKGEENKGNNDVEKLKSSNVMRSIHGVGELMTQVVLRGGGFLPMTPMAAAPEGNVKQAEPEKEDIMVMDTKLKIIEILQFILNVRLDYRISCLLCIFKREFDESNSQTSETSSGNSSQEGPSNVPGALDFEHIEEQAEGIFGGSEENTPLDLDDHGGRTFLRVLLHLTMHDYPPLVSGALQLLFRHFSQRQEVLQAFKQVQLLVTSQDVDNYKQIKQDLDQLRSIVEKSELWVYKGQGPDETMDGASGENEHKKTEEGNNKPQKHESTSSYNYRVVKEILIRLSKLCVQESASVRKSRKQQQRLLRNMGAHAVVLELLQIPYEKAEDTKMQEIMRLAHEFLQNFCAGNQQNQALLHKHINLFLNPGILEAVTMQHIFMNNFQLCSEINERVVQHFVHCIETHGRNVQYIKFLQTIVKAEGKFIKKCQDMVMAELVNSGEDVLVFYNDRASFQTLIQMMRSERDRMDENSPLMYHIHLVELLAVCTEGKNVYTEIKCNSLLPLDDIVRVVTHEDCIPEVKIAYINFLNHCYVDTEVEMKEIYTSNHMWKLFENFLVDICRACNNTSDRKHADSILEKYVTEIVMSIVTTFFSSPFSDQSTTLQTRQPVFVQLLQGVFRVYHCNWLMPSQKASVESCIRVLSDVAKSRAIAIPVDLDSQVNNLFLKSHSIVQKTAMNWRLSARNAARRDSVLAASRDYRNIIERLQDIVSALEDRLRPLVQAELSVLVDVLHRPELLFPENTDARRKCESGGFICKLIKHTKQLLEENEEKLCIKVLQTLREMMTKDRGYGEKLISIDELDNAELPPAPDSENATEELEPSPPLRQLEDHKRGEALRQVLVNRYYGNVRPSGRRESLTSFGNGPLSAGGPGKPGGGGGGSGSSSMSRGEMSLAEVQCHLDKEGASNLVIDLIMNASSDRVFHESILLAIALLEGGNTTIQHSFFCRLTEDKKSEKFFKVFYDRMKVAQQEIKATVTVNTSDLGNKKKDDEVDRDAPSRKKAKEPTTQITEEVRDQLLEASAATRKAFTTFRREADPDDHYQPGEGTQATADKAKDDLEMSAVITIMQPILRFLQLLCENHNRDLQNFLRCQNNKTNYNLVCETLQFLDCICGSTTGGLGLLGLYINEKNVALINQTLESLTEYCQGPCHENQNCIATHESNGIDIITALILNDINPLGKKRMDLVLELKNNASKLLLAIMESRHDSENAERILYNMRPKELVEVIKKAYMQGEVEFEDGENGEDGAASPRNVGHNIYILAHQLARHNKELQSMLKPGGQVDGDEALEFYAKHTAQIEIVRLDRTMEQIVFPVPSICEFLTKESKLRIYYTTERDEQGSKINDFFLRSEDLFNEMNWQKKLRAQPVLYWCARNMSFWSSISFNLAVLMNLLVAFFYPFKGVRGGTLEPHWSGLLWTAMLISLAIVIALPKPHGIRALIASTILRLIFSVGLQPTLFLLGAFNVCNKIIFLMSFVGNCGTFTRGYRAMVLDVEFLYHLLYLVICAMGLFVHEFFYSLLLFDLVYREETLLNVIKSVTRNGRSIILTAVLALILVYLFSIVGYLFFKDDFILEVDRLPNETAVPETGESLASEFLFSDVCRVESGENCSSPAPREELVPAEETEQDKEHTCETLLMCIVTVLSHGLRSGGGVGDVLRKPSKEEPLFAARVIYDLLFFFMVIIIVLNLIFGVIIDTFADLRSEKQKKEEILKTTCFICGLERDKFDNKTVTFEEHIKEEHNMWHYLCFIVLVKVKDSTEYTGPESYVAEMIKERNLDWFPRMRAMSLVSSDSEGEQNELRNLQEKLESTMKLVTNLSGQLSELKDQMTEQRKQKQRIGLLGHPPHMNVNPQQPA

Compound | potentiation of SLIGR-NH2 stimulus (Ca2+ mobilization), HEKR1 cells [1] | peak of Cl- current elicited by UTP (short-circuit current) [2] | potentiation of Ca2+ mobilization elicited by UTP, T267M mutant [3] | transepithelial Cl- current elicited by apical UTP [4] | potentiation of Ca2+ mobilization elicited by UTP, R269W mutant [5] | potentiation of UTP effect on PLC activity, lower UTP concentration [6] | potentiation of UTP effect on PLC activity, higher UTP concentration [6]
CCc1cc(-c2cc(NCCCOc3ccccc3C)nc(N)n2)n(C)n1 [ARN7149, 6-(3-Ethyl-1-methyl-1H-pyrazol-5-yl)-N^4-(3-(o-tolyloxy)propyl)pyrimidine-2,4-diamine] | significant inhibition | significantly enhanced | also effective although less than ARN11391 | significantly enhanced | also effective although less than ARN11391 | significantly potentiated | effective
OCc1ccccc1CN(Cc1ccnc(N2CCCC2)n1)c1ccc(F)cc1 [ARN4550, [2-[[4-Fluoro-N-[(2-pyrrolidin-1-ylpyrimidin-4-yl)methyl]anilino]methyl]phenyl]methanol] | effective as potentiators | significantly enhanced | also effective although less than ARN11391 | significantly enhanced | also effective although less than ARN11391 | significantly potentiated | effective
CCn1nc2c(c1C(=O)Nc1ccccc1OCC1CCCCO1)CCCC2 (centres unmarked) [ARN11391, 2-Ethyl-N-[2-(tetrahydropyran-2-ylmethoxy)phenyl]-4,5,6,7-tetrahydroindazole-3-carboxamide] | effective as potentiators | significantly enhanced | marked potentiation | significantly enhanced | marked potentiation | – | effective
